Experimental data published in US20070117770A1, “Human ribosomal DNA (rDNA) and ribosomal RNA (rRNA) nucleic acids and uses thereof” (Cylene Pharmaceuticals, Inc., priority 2005, published 2007).

Experiments:
[1] = target: cKit(D816V)(h) (Homo sapiens, UniProt P10721, D816V); test: Protein kinase inhibition assay; assay type: biochemical; conditions: read-out: percent residual activity of cKit(D816V)(h)
Experimental: (§1) Certain compounds were tested for activity in protein kinase inhibition assays. All substrates were dissolved and diluted to working stocks in de-ionized water, apart from histone H1 (10× working stock in 20 mM MOPS pH 7.0), PDKtide (10× working stock in 50 mM Tris pH 7.0) ATF2 (which is typically stored at a 20× working stock in 50 mM Tris pH 7.5, 150 mM NaCl, 0.1 mM EGTA, 0.03% Brij-35, 50% glycerol, 1 mM benzamidine, 0.2 mM PMSF and 0.1% R-mercaptoethanol), KKLNRTLSFAEPG (SEQ ID NO:203) and RRRLSFAEPG (SEQ ID NO:204) (50 mM HEPES pH 7.4) and GGEEEEYFELVKKKK (SEQ ID NO:205) (20 mM MOPS pH 7.0). All kinases were pre-diluted to a 10× working concentration prior to addition into the assay. The composition of the dilution buffer for each kinase is detailed below.
(§2) In a final reaction volume of 25 μl, cKit (D816V) (h) (5-10 mU) is incubated with 8 mM MOPS pH 7.0, 0.2 mM EDTA, 10 mM MnCl2, 0.1 mg/ml poly(Glu, Tyr) 4:1, 10 mM MgAcetate and [gamma-33P-ATP] (specific activity approx. 500 cpm/pmol, concentration as required). The reaction is initiated by the addition of the MgATP mix. After incubation for 40 minutes at room temperature, the reaction is stopped by the addition of 5 μl of a 3% phosphoric acid solution. […]

[2] = target: PAR-1Bα(h) (Homo sapiens, UniProt Q7KZI7); test: Protein kinase inhibition assay; assay type: biochemical; conditions: read-out: percent residual activity of PAR-1Bα(h)
PAR-1Bα(h), sequence (Q7KZI7 1-725 isoform Q7KZI7-4): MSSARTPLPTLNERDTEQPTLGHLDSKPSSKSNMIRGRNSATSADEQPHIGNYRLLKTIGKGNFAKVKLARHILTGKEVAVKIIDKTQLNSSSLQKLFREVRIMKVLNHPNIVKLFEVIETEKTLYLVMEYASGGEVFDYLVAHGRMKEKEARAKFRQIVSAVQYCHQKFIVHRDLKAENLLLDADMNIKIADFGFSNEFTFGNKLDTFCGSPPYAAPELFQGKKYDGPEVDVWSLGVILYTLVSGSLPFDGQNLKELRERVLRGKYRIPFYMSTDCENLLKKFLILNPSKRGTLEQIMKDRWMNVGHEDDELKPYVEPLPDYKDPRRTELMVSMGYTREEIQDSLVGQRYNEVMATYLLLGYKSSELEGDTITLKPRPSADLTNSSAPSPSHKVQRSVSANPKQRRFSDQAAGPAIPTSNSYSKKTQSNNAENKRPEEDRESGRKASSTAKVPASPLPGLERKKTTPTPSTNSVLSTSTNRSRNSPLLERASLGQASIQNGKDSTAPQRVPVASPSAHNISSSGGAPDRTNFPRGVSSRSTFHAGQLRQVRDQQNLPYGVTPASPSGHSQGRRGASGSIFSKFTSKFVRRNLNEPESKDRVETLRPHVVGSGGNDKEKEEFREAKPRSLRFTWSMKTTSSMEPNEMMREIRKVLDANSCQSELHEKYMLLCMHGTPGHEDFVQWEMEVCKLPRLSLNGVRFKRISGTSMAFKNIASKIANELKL
Experimental: as §1
In a final reaction volume of 25 μl, PAR-1Bα (h) (5-10 mU) is incubated with 8 mM MOPS pH 7.0, 0.2 mM EDTA, 100 μM […] (SEQ ID NO:213), 10 mM MgAcetate and [gamma-33P-ATP] (specific activity approx. 500 cpm/pmol, concentration as required). The reaction is initiated by the addition of the MgATP mix. After incubation for 40 minutes at room temperature, the reaction is stopped by the addition of 5 μl of a 3% phosphoric acid solution. 10 pi of the reaction is then spotted onto a P30 filtermat and washed three times for 5 minutes in 75 mM phosphoric acid and once in methanol prior to drying and scintillation counting.

[3] = target: PDK1(h) (Homo sapiens, UniProt O15530); test: Protein kinase inhibition assay; assay type: biochemical; conditions: read-out: percent residual activity of PDK1(h)
PDK1(h), sequence (O15530 whole entry): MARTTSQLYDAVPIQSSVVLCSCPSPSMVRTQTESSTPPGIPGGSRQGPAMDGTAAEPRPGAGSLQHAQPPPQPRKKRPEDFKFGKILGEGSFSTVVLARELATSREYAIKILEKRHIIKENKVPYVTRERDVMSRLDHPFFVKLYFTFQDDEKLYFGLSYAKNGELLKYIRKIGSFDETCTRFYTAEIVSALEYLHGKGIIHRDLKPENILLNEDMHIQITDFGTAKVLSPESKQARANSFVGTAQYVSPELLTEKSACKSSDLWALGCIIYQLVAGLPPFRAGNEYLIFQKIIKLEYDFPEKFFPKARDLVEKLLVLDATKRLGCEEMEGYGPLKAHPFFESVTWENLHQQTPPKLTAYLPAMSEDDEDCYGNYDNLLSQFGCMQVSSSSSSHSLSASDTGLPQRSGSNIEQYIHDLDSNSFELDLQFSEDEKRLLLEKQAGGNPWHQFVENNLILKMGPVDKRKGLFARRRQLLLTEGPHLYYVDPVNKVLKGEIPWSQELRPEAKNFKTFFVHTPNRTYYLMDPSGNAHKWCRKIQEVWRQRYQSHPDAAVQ
Experimental: as §1
as §2, with “PDK1” for “cKit (D816V)”, “50” for “8”, “Tris” for “MOPS”, “7.5, 100 μM […] (SEQ ID NO:217) (PDKtide), 0.1% R-mercaptoethanol,” for “7.0, 0.2 mM EDTA, 10 mM MnCl2, 0.1 mg/ml poly(Glu, Tyr) 4:1,”

[4] = target: Pim-1(h) (Homo sapiens, UniProt P11309); test: Protein kinase inhibition assay; assay type: biochemical; conditions: read-out: percent residual activity of Pim-1(h)
Pim-1(h), sequence (P11309 whole entry): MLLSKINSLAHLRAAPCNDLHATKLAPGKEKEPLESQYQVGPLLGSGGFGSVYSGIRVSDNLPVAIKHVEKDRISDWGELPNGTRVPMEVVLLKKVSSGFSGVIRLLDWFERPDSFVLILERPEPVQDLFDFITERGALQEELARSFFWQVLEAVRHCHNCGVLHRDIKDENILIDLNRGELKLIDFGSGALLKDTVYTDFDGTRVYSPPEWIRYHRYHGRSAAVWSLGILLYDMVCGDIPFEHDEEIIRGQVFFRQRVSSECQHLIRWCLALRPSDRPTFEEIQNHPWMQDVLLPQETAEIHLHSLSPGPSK
Experimental: as §1
In a final reaction volume of 25 μl, Pim-1 (h) (5-10 mU) is incubated with 8 mM MOPS pH 7.0, 0.2 mM EDTA, 100 μM KKRNRTLTV (SEQ ID NO:219), 10 mM MgAcetate and [gamma-33P-ATP] (specific activity approx. 500 cpm/pmol, concentration as required). The reaction is initiated by the addition of the MgATP mix. After incubation for 40 minutes at room temperature, the reaction is stopped by the addition of 5 μl of a 3% phosphoric acid solution. 10 μl of the reaction is then spotted onto a P30 filtermat and washed three times for 5 minutes in 75 mM phosphoric acid and once in methanol prior to drying and scintillation counting.

[5] = target: PRK2(h) (Homo sapiens, UniProt Q16513); test: Protein kinase inhibition assay; assay type: biochemical; conditions: read-out: percent residual activity of PRK2(h)
PRK2(h), sequence (Q16513 whole entry): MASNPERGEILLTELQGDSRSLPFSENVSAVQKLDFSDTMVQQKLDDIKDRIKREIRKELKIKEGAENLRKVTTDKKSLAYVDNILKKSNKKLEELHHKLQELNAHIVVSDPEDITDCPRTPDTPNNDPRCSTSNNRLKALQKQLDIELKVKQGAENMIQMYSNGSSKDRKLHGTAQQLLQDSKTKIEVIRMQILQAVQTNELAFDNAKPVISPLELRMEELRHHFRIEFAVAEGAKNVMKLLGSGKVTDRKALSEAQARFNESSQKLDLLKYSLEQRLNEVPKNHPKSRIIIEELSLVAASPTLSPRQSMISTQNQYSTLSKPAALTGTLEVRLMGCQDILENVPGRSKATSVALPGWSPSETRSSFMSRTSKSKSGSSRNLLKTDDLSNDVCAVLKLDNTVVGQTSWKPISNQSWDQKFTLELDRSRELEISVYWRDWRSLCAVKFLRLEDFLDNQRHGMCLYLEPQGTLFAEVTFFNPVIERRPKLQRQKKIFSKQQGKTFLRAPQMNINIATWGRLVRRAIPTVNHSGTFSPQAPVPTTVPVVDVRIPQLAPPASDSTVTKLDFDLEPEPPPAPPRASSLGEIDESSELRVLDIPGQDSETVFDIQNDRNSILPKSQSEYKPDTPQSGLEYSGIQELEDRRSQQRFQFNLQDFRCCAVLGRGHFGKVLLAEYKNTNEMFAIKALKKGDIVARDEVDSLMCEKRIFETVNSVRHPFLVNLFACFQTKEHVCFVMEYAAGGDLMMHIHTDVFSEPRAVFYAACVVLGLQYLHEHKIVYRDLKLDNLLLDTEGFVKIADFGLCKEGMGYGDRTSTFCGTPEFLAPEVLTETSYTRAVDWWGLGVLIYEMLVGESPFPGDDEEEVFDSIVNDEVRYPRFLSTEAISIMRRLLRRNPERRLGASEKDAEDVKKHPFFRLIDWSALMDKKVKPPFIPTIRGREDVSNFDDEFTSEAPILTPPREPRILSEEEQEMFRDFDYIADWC
Experimental: as §1
as §2, with “PRK2” for “cKit (D816V)”, “50” for “8”, “Tris” for “MOPS”, “7.5, 0.1” for “7.0, 0.2”, “EGTA, 0.1% R-mercaptoethanol, 30 μM AKRRRLSSLRA (SEQ ID NO:226),” for “EDTA, 10 mM MnCl2, 0.1 mg/ml poly(Glu, Tyr) 4:1,”

[6] = target: T1, nucleolin/HP pre-rRNA region (Homo sapiens, UniProt P19338); test: EMSA, nucleolin/HP ligand interaction; assay type: binding; conditions: nucleolin ~250 nM, 32P-labeled ligand 10 or 250 nM, 30 minutes (FIG. 1, FIG. 2)
T1 construct: without the N-terminal acidic stretches domain
T1 sequence (P19338 284-710 limits assumed): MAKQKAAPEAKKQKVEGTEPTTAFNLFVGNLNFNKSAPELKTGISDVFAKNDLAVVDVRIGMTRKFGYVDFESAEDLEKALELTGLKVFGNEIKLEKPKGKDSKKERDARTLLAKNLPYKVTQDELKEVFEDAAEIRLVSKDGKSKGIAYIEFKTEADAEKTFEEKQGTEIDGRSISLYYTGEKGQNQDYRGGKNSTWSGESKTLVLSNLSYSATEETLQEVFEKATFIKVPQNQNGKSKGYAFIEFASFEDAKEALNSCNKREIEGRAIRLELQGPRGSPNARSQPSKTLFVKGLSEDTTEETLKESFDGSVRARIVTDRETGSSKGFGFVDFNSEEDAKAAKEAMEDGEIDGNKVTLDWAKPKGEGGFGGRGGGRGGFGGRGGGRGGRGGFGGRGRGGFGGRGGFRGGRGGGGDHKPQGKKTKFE
Experimental: The following assays assessed effects of compounds on interactions between nucleolin and nucleic acid ligands capable of forming quadruplex (QP) and hairpin (HP) secondary structures. Nucleic acid ligands tested were a cMyc QP DNA having nucleotide sequence 5′-[…]-3′ (SEQ ID NO: 176) and a HP pre-rRNA region to which nucleolin binds, having the sequence 5′-[…]-3′ (SEQ ID NO: 177). In the assays, recombinant nucleolin (˜250 nM), which was fused to maltose binding protein and had the sequence under accession number NM_005381 without the N-terminal acidic stretches domain, was incubated with each of the two ^32P-labeled nucleic acid ligands (10 or 250 nM). Nucleolin and the nucleic acid ligand were incubated in the presence or absence of a test compound of Formula A-1, B-1, C-6 or C-7 in an incubation buffer (12.5 mM Tris, pH 7.6, 60 mM KCl, 1 mM MgCl2, 0.1 mM EDTA, 1 mM DTT, 5% glycerol, 0.1 mg/ml BSA) for 30 minutes at room temperature. Structures for A-1 and B-1 are shown above and structures for C-6 and C-7 are shown hereafter: [drawing 17] The resulting complexes were separated on a 6% DNA retardation gel using 0.5× TBE with 20 mM KCl as a running buffer (i.e., electrophoresis mobility shift assay (EMSA)).

cKit(D816V)(h), sequence (P10721 26-976 D816V): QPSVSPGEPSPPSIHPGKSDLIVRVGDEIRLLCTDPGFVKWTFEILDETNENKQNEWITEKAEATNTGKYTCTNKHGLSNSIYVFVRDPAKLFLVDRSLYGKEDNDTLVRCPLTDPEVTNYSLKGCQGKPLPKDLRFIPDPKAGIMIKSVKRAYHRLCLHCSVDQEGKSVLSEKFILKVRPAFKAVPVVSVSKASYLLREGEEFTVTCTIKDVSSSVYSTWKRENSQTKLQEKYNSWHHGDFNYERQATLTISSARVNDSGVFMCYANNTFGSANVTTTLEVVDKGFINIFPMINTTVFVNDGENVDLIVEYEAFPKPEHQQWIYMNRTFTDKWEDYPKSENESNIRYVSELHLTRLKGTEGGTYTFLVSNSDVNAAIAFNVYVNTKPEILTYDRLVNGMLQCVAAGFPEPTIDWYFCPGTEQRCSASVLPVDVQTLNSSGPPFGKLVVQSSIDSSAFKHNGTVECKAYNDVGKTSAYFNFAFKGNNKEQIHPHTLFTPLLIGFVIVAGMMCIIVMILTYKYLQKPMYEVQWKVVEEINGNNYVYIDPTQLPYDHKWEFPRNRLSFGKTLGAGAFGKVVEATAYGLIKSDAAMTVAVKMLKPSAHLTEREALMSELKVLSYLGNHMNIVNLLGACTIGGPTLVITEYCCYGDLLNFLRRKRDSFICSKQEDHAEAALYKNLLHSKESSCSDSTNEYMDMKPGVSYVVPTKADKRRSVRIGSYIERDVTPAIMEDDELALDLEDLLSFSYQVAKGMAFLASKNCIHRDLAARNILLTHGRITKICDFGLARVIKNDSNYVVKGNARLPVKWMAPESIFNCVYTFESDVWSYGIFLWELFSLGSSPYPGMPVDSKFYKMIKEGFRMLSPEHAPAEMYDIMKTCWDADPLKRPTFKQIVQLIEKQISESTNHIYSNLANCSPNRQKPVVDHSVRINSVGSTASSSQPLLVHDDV

CN1CCCC1CCNC(=O)c1cn2c3c(c(N4CCC(c5cnccn5)C4)c(F)cc3c1=O)Oc1cc3ccccc3cc1-2 (stereo not drawn) [Compound A-1]
remaining activity at 2.5 µM [1]: 104% | remaining activity at 2.5 µM [2]: 88% | remaining activity at 2.5 µM [3]: 121% | remaining activity at 2.5 µM [4]: 30% | remaining activity at 2.5 µM [5]: 36% | interference with the nucleolin/HP ligand interaction [6]: did not significantly interfere with the nucleolin/HP ligand interaction

CC(=O)N1CCN(c2ccc3c(=O)c(C(=O)NCCN4CCCC4)c4n(C)c5ccccc5n4c3n2)CC1 [Compound B-1]
remaining activity at 2.5 µM [1]: 103% | remaining activity at 2.5 µM [2]: 100% | remaining activity at 2.5 µM [3]: 109% | remaining activity at 2.5 µM [4]: 104% | remaining activity at 2.5 µM [5]: 110% | interference with the nucleolin/HP ligand interaction [6]: did not significantly interfere with the nucleolin/HP interaction
